This is an account of results in US20230248036A1, “FLAVOUR ADDITIVES” (MARS, INCORPORATED, priority 2012, published 2023).

In assay [1] the test system is feline umami receptor. The assay can be described thus: Ligand binding of the feline umami receptor. Conditions: natural ligands of the human T1R1/T1R3 receptor. An excerpt: As mentioned above, in addition to in silico modelling of the feline umami receptor, sequence alignments of the human, cat and dog receptors have been performed. […] Therefore, due to these significant differences, it would not be expected by the skilled person that compounds that are known to bind to the human receptor would affect the umami receptor of other animals as described herein.

Assay [2] relates to T1R1/T1R3 receptor (umami receptor). The assay is described as follows: In vitro screening for binding and activation of the umami receptor. The class given is biochemical. The conditions noted are these: in vitro assays using a non-human umami receptor (with in silico modelling); screening in the presence of 0.2 mM IMP. The procedure: In vitro screening was carried out in order to establish which first amino acids bind and activate the umami receptor.
In vitro screening was carried out in order to establish which second amino acids bind and activate the umami receptor.

For the molecule `N[C@@H](CCC(=O)O)C(=O)O` [glutamate], the “Binding to the feline umami receptor” value in assay [1] was “does not bind”.

For the molecule `NCC(=O)O` [glycine], the “Ability to bind to and activate the umami receptor” value (“Ability to bind” for short) in assay [2] was “able to bind to and activate”.

As to `N[C@@H](Cc1c[nH]cn1)C(=O)O` [histidine], the “Ability to bind” value in assay [2] is “able to bind to and activate”.

Take `C[C@@H](O)[C@H](N)C(=O)O` [threonine]: in assay [2], the “Ability to bind” value was “do not activate”.
